In patent US20230148214A1, “INDAZOLES AND AZAINDAZOLES AS LRRK2 INHIBITORS” (ESCAPE Bio, Inc., priority 2020, published 2023):

How the values were obtained:
LRRK2 G2019S = molecular target: T1, LRRK2 G2019S (Homo sapiens, UniProt Q5S007, G2019S); test: LRRK2 Kinase Activity Assay (LanthaScreen TR-FRET), G2019S; format: biochemical; conditions: recombinant G2019S-LRRK2, 25 μM ATP, 400 nM LRRKtide, 60 min; class symbols
T1 construct: purchased Life Technologies PV4881
How it was run: (§1)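 IC50 fitted to the compound-dependent loss of TR-FRET signal. Each kinase form, wild type or G2019S, phosphorylated the fluorescein-tagged ERM-derived LRRKtide in the presence of ATP and compound dilutions over 60 min at room temperature; quench contained 10 mM EDTA and 2 nM anti-pERM antibody (final).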

LRRK2 WT = molecular target: T2, LRRK2 WT (Homo sapiens, UniProt Q5S007); test: LRRK2 Kinase Activity Assay (LanthaScreen TR-FRET), wild type; format: biochemical; conditions: recombinant wild type LRRK2, 25 μM ATP, 400 nM LRRKtide, 60 min; class symbols
T2 construct: purchased Life Technologies PR8604B
How it was run: as §1

T2 sequence (Q5S007 whole entry): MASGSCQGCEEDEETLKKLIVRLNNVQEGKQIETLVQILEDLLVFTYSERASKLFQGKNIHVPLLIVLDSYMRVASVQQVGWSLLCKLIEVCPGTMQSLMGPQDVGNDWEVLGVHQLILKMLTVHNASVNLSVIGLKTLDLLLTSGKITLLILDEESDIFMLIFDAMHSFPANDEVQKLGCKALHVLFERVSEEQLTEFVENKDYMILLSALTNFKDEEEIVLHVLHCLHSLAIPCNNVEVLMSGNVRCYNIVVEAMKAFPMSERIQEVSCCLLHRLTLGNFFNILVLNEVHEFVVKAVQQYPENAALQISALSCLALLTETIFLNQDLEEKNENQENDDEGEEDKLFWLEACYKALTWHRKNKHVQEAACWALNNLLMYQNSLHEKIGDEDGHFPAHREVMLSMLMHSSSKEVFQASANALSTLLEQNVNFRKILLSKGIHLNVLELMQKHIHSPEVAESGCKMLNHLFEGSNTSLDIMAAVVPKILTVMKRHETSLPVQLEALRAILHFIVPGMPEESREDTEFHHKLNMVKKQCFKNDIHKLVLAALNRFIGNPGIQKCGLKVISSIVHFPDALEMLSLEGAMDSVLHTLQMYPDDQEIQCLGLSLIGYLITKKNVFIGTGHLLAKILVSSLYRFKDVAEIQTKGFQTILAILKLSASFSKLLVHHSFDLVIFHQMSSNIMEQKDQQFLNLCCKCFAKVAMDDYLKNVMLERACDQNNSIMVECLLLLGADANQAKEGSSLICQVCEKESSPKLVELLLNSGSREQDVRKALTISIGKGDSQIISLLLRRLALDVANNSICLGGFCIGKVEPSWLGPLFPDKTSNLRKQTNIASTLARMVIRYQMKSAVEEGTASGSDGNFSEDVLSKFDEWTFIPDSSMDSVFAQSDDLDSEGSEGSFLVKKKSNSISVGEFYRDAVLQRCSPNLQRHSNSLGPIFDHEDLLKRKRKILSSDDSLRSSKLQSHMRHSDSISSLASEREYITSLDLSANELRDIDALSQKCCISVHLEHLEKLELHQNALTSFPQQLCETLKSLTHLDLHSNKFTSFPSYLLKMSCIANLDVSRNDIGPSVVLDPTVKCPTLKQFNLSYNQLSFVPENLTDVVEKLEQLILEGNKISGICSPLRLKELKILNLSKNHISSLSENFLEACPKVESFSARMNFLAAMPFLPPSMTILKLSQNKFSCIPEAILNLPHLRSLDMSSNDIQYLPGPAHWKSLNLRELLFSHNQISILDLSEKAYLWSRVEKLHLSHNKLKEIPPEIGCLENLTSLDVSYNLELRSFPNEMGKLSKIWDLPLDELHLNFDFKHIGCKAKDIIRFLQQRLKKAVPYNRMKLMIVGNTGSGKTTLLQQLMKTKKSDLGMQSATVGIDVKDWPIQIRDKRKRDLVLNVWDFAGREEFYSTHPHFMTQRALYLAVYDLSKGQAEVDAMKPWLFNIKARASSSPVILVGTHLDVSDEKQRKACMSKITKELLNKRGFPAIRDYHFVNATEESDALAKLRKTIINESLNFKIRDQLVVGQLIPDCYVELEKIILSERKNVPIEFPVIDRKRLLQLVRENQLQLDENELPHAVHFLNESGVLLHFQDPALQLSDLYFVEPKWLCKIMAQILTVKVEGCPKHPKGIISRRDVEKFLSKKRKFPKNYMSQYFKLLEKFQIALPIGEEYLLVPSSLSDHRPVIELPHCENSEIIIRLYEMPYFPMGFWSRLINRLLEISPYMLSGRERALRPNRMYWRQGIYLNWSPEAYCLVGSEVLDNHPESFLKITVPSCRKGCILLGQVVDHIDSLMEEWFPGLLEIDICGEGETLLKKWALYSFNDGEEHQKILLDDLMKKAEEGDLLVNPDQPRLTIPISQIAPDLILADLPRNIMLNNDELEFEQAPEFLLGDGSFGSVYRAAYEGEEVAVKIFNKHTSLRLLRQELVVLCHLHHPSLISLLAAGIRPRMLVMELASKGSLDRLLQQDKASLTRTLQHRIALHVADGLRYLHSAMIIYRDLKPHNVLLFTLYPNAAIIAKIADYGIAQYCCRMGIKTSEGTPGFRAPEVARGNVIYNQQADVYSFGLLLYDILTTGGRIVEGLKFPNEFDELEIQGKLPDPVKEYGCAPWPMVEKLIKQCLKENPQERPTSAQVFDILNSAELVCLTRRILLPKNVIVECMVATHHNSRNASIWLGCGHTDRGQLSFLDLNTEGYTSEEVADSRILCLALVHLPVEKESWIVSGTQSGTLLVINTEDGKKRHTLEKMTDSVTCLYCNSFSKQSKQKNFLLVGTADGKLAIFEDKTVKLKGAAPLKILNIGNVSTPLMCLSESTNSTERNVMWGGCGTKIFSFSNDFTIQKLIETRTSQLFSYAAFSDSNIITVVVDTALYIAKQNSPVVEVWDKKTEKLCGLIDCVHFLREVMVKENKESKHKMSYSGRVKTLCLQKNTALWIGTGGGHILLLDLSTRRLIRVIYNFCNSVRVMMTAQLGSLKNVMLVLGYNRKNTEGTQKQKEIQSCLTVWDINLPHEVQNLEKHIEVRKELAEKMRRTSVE
T1 sequence (Q5S007 whole entry G2019S): as the sequence (Q5S007 whole entry) above, with G2019S counted along it

IC50 (LRRK2 G2019S) [nM]	IC50 (LRRK2 WT) [nM]	Structure (SMILES)
< 100	100 to 1000	N#Cc1ccc2c(c1)CCC[C@@H]2Nc1ccc2[nH]nc(-c3ccc(F)c(C(=O)O)c3)c2c1 (single isomer, unassigned) [Example 66, 5-(5-((6-Cyano-1,2,3,4-tetrahydronaphthalen-1-yl)amino)-1H-indazol-3-yl)-2-fluorobenzoic acid]
< 100	< 100	N#Cc1ccc2c(c1)CCC[C@@H]2Nc1ccc2[nH]nc(-c3ccc4scnc4c3)c2c1 (single isomer, unassigned) [Example 67, 5-((3-(Benzo[d]thiazol-5-yl)-1H-indazol-5-yl)amino)-5,6,7,8-tetrahydronaphthalene-2-carbonitrile]
< 100	< 100	N#Cc1ccc2c(c1)CCC[C@@H]2Nc1ccc2[nH]nc(-c3cccc(C(F)F)c3)c2c1 (single isomer, unassigned) [Example 68, 5-((3-(3-(Difluoromethyl)phenyl)-1H-indazol-5-yl)amino)-5,6,7,8-tetrahydronaphthalene-2-carbonitrile]
< 100	< 100	CONC(=O)c1cccc(-c2n[nH]c3ccc(N[C@H]4CCCc5cc(C#N)ccc54)cc23)c1 (single isomer, unassigned) [Example 69, 3-(5-((6-Cyano-1,2,3,4-tetrahydronaphthalen-1-yl)amino)-1H-indazol-3-yl)-N-methoxybenzamide]
< 100	100 to 1000	N#Cc1ccc2c(c1)CCC[C@@H]2Nc1ccc2[nH]nc(-c3ccc([N+](=O)[O-])cc3)c2c1 (single isomer, unassigned) [Example 70, 5-((3-(4-Nitrophenyl)-1H-indazol-5-yl)amino)-5,6,7,8-tetrahydronaphthalene-2-carbonitrile]
< 100	< 100	COc1ccc(-c2n[nH]c3ccc(N[C@H]4CCCc5cc(C#N)ccc54)cc23)cc1OC (single isomer, unassigned) [Example 71, 5-((3-(3,4-Dimethoxyphenyl)-1H-indazol-5-yl)amino)-5,6,7,8-tetrahydronaphthalene-2-carbonitrile]
< 100	< 100	N#Cc1ccc2c(c1)CCC[C@@H]2Nc1ccc2[nH]nc(-c3ccc(N4CCOCC4)cc3)c2c1 (single isomer, unassigned) [Example 72, 5-((3-(4-Morpholinophenyl)-1H-indazol-5-yl)amino)-5,6,7,8-tetrahydronaphthalene-2-carbonitrile]
< 100	100 to 1000	COc1ccc(-c2n[nH]c3ccc(N[C@H]4CCCc5cc(C#N)ccc54)cc23)cc1C (single isomer, unassigned) [Example 73, 5-((3-(4-Methoxy-3-methylphenyl)-1H-indazol-5-yl)amino)-5,6,7,8-tetrahydronaphthalene-2-carbonitrile]
< 100	< 100	CS(=O)(=O)c1ccc(-c2n[nH]c3ccc(N[C@H]4CCCc5cc(C#N)ccc54)cc23)cc1 (single isomer, unassigned) [Example 74, 5-((3-(4-(Methylsulfonyl)phenyl)-1H-indazol-5-yl)amino)-5,6,7,8-tetrahydronaphthalene-2-carbonitrile]
< 100	100 to 1000	C/C=C/c1n[nH]c2ccc(N[C@H]3CCCc4cc(C#N)ccc43)cc12 (single isomer, unassigned) [Example 75, (E)-5-((3-(Prop-1-en-1-yl)-1H-indazol-5-yl)amino)-5,6,7,8-tetrahydronaphthalene-2-carbonitrile]
< 100	< 100	N#Cc1ccc2c(c1)CCC[C@@H]2Nc1ccc2[nH]nc(-c3cncc(C4CC4)c3)c2c1 (single isomer, unassigned) [Example 76, 5-((3-(5-Cyclopropylpyridin-3-yl)-1H-indazol-5-yl)amino)-5,6,7,8-tetrahydronaphthalene-2-carbonitrile]
< 100	< 100	N#Cc1ccc2c(c1)CCC[C@@H]2Nc1ccc2[nH]nc(-c3ccc4c(c3)OCO4)c2c1 (single isomer, unassigned) [Example 77, 5-((3-(Benzo[d][1,3]dioxol-5-yl)-1H-indazol-5-yl)amino)-5,6,7,8-tetrahydronaphthalene-2-carbonitrile]
< 100	100 to 1000	N#Cc1ccc2c(c1)CCC[C@@H]2Nc1ccc2[nH]nc(-c3ccc4[nH]ccc4c3)c2c1 (single isomer, unassigned) [Example 78, 5-((3-(1H-Indol-5-yl)-1H-indazol-5-yl)amino)-5,6,7,8-tetrahydronaphthalene-2-carbonitrile]
< 100	100 to 1000	N#Cc1ccc2c(c1)CCC[C@@H]2Nc1ccc2[nH]nc(-c3ccc[nH]3)c2c1 (single isomer, unassigned) [Example 79, 5-((3-(1H-Pyrrol-2-yl)-1H-indazol-5-yl)amino)-5,6,7,8-tetrahydronaphthalene-2-carbonitrile]

The next lines start with the molecule.

Structure (SMILES)	IC50 (LRRK2 G2019S) [nM]	IC50 (LRRK2 WT) [nM]
N#Cc1ccc2c(c1F)CC[C@@H]2Oc1ccc2[nH]nc(-c3cnn(C(F)F)c3)c2c1 (single isomer, unassigned) [Example 51, enantiomer 1, 1-((3-(1-(Difluoromethyl)-1H-pyrazol-4-yl)-1H-indazol-5-yl)oxy)-4-fluoro-2,3-dihydro-1H-indene-5-carbonitrile]	< 100	< 100
Cc1c(C#N)ccc2c1CC[C@@H]2Nc1ccc2[nH]nc(-c3cnn(C(F)F)c3)c2c1 (single isomer, unassigned) [Example 52, enantiomer 1, 1-((3-(1-(Difluoromethyl)-1H-pyrazol-4-yl)-1H-indazol-5-yl)amino)-4-methyl-2,3-dihydro-1H-indene-5-carbonitrile]	< 100	< 100
N#Cc1ccc2c(c1F)CC[C@H]2Nc1ccc2[nH]nc(-c3cnn(C(F)F)c3)c2c1 (single isomer, unassigned) [Example 53, enantiomer 1, 1-((3-(1-(Difluoromethyl)-1H-pyrazol-4-yl)-1H-indazol-5-yl)amino)-4-fluoro-2,3-dihydro-1H-indene-5-carbonitrile]	< 100	< 100
N#Cc1ccc2c(c1F)CC[C@H]2Nc1ccc2[nH]nc(-c3cnn(C(F)F)c3)c2c1 (single isomer, unassigned) [Example 53, enantiomer 2, 1-((3-(1-(Difluoromethyl)-1H-pyrazol-4-yl)-1H-indazol-5-yl)amino)-4-fluoro-2,3-dihydro-1H-indene-5-carbonitrile]	< 100	100 to 1000
N#Cc1ccc2c(c1)CCC[C@@H]2Nc1ccc2[nH]nc(C3=CCCCC3)c2c1 (single isomer, unassigned) [Example 54, 5-((3-(Cyclohex-1-en-1-yl)-1H-indazol-5-yl)amino)-5,6,7,8-tetrahydronaphthalene-2-carbonitrile]	100 to 1000	1000 to 10000
N#Cc1ccc2c(c1)CCC[C@@H]2Nc1ccc2[nH]nc(-c3ccc(C(=O)O)cc3)c2c1 (single isomer, unassigned) [Example 55, 4-(5-((6-Cyano-1,2,3,4-tetrahydronaphthalen-1-yl)amino)-1H-indazol-3-yl)benzoic acid]	< 100	< 100
Cn1cc2ccc(-c3n[nH]c4ccc(N[C@H]5CCCc6cc(C#N)ccc65)cc34)cc2n1 (single isomer, unassigned) [Example 56, 5-((2′-Methyl-1H,2′H-[3,6′-biindazol]-5-yl)amino)-5,6,7,8-tetrahydronaphthalene-2-carbonitrile]	100 to 1000	1000 to 10000
CS(=O)(=O)c1cccc(-c2n[nH]c3ccc(N[C@H]4CCCc5cc(C#N)ccc54)cc23)c1 (single isomer, unassigned) [Example 57, 5-((3-(3-(Methylsulfonyl)phenyl)-1H-indazol-5-yl)amino)-5,6,7,8-tetrahydronaphthalene-2-carbonitrile]	< 100	< 100
COc1cc(OC)cc(-c2n[nH]c3ccc(N[C@H]4CCCc5cc(C#N)ccc54)cc23)c1 (single isomer, unassigned) [Example 58, 5-((3-(3,5-Dimethoxyphenyl)-1H-indazol-5-yl)amino)-5,6,7,8-tetrahydronaphthalene-2-carbonitrile]	< 100	100 to 1000
Cc1ncc(-c2n[nH]c3ccc(N[C@H]4CCCc5cc(C#N)ccc54)cc23)o1 (single isomer, unassigned) [Example 60, 5-((3-(2-Methyloxazol-5-yl)-1H-indazol-5-yl)amino)-5,6,7,8-tetrahydronaphthalene-2-carbonitrile]	< 100	< 100
N#Cc1ccc2c(c1)CCC[C@@H]2Nc1ccc2[nH]nc(-c3ccc4cc[nH]c4c3)c2c1 (single isomer, unassigned) [Example 61, 5-((3-(1H-Indol-6-yl)-1H-indazol-5-yl)amino)-5,6,7,8-tetrahydronaphthalene-2-carbonitrile]	< 100	100 to 1000
Cn1cc(-c2n[nH]c3ccc(N[C@H]4CCCc5cc(C#N)ccc54)cc23)ccc1=O (single isomer, unassigned) [Example 62, 5-((3-(1-Methyl-6-oxo-1,6-dihydropyridin-3-yl)-1H-indazol-5-yl)amino)-5,6,7,8-tetrahydronaphthalene-2-carbonitrile]	< 100	< 100
N#Cc1ccc(-c2n[nH]c3ccc(N[C@H]4CCCc5cc(C#N)ccc54)cc23)cc1 (single isomer, unassigned) [Example 63, 5-((3-(4-Cyanophenyl)-1H-indazol-5-yl)amino)-5,6,7,8-tetrahydronaphthalene-2-carbonitrile]	< 100	100 to 1000
N#Cc1ccc2c(c1)CCC[C@@H]2Nc1ccc2[nH]nc(C3=CCCC3)c2c1 (single isomer, unassigned) [Example 65, 5-((3-(Cyclopent-1-en-1-yl)-1H-indazol-5-yl)amino)-5,6,7,8-tetrahydronaphthalene-2-carbonitrile]	100 to 1000	1000 to 10000
